The results in this text go back to ChEMBL document CHEMBL4052590, “Anti-Osteoporotic Activity of Harpagoside by Upregulation of the BMP2 and Wnt Signaling Pathways in Osteoblasts and Suppression of Differentiation in Osteoclasts” (J Nat Prod, 2017).

Each structure is given as a SMILES string. Active and inactive are the calls of the source. No cut-off for these calls is given here.

Assay [1] relates to Mus musculus. Nature of the assay: Effect on alkaline phosphatase activity in serum of OVX-induced bone loss ICR mouse model at 10 ug/kg, po via gavage for 12 weeks using p-NPP as substrate (reference value: 84.9 +/- 4.2 U/L). The class given is functional.
In assay [2] the test system is Mus musculus. Nature of the assay: Effect on […] level in serum of OVX-induced bone loss ICR mouse model at 10 ug/kg, po via gavage for 12 weeks by ELISA (reference value: 8.2 +/- 0.4 mg/dl). The class given is functional.
The test system of assay [3] is Mus musculus. Kind of assay: Anti-osteoporotic activity in OVX-induced bone loss ICR mouse model assessed as decrease in trabecular bone destruction in femur at 10 ug/kg, po administered for 12 weeks via gavage by microcomputed tomography. In kind it is functional, organism-based.
In assay [4] the test system is Mus musculus. Nature of the assay: Effect on TRAP activity in serum of OVX-induced bone loss ICR mouse model at 10 ug/kg, po via gavage for 12 weeks (reference value: 19.8 +/- 1.0 U/L). In kind it is functional.
Assay [5] relates to Mus musculus. Kind of assay: Effect on calcium level in serum of OVX-induced bone loss ICR mouse model at 10 ug/kg, po via gavage for 12 weeks by ELISA (reference value: 9.3 +/- 0.3 mg/dl). The class given is functional.
The test system of assay [6] is Mus musculus. Nature of the assay: Effect on C-terminal telopeptide level in serum of OVX-induced bone loss ICR mouse model at 10 ug/kg, po via gavage for 12 weeks by ELISA (reference value: 95.7 +/- 3.8 ng/ml). In kind it is functional.
For assay [7], the system named is Mus musculus. Nature of the assay: Effect on osteocalcin level in serum of OVX-induced bone loss ICR mouse model at 10 ug/kg, po via gavage for 12 weeks by ELISA (reference value: 176.9 +/- 4.7 ng/ml). The class given is functional.

On to `C[C@]12CC[C@@H]3c4ccc(O)cc4CC[C@H]3[C@@H]1CC[C@@H]2O` [ESTRADIOL], for which the Activity amounted to 59.9 U/L in the assay on Mus musculus [1]; 7.9 mg/dL with Mus musculus [2]; 10.8 U/L in the assay on Mus musculus [4]; 9.1 mg/dL with Mus musculus [5]; 76.6 ng/mL in the assay on Mus musculus [6]; 141.9 ng/mL with Mus musculus [7]. Besides, the result in the assay with Mus musculus [3] was Active.
